From ChEMBL document CHEMBL5390201, “The Natural Alkaloid (-)-N-Hydroxyapiosporamide Suppresses Colorectal Tumor Progression as an NF-κB Pathway Inhibitor by Targeting the TAK1-TRAF6 Complex” (J Nat Prod, 2023)
Calls of active or inactive are those of the source. The calls are words filed in the database; no cut-off is given here.

Tests used:
Mus musculus [1] = experiment: In vivo inhibition of NFkappaB activation in athymic BALB/c mouse xenografted with human HT-29 cells assessed as reduction in A20 gene expression in tumor at 5 to 15 mg/kg, ip administered every other day and measured after 14 days by qRT-PCR analysis; assay type: functional, organism-based; details: dose 5-15 mg/kg, time 14.0 day
HCT-116 [2] = experiment: Induction of autophagic flux in human HCT-116 cells assessed as increase in LC3 protein expression preincubated with chloroquine for 1 hr followed by compound addition and measured after 24 hrs by Western blot analysis; assay type: functional, cell-based
HT-29 [3] = experiment: Induction of cell cycle arrest in human HT-29 cells assessed as accumulation of cells at G2/M phase at 5 uM by RNase/PI staining based flow cytometry analysis (reference value: 9.93 %); assay type: functional
HCT-116 [4] = experiment: Induction of apoptosis in human HCT-116 cells assessed as viable cells at 0.25 uM incubated for 24 hrs by Annexin V-FITC/PI staining based flow cytometric analysis (reference value: 88.8%); assay type: functional; details: read-out: Activity
HT-29 [5] = experiment: Induction of cell cycle arrest in human HT-29 cells assessed as decrease in Cyclin B protein expression upto 10 uM incubated for 24 hrs by Western blot analysis; assay type: functional, cell-based
HCT-116 [6] = experiment: Induction of apoptosis in human HCT-116 cells assessed as viable cells at 0.5 uM incubated for 24 hrs by Annexin V-FITC/PI staining based flow cytometric analysis (reference value: 88.8%); assay type: functional; details: read-out: Activity
HCT-116 [7] = experiment: Induction of apoptosis in human HCT-116 cells assessed as early apoptotic cells at 5 uM incubated for 24 hrs by Annexin V-FITC/PI staining based flow cytometric analysis (reference value: 7.22 %); assay type: functional
HT-29 [8] = experiment: Induction of apoptosis in human HT-29 cells assessed as viable cells at 1 uM incubated for 24 hrs by Annexin V-FITC/PI staining based flow cytometric analysis (reference value: 93 %); assay type: functional; details: read-out: Activity
HT-29 [9] = experiment: Induction of apoptosis in human HT-29 cells assessed as early apoptotic cells at 10 uM incubated for 24 hrs by Annexin V-FITC/PI staining based flow cytometric analysis (reference value: 5.29 %); assay type: functional
HT-29 [10] = experiment: Induction of apoptosis in human HT-29 cells assessed as early apoptotic cells at 5 uM incubated for 24 hrs by Annexin V-FITC/PI staining based flow cytometric analysis (reference value: 5.29 %); assay type: functional
HT-29 [11] = experiment: Induction of apoptosis in human HT-29 cells assessed as late apoptotic cells at 5 uM incubated for 24 hrs by Annexin V-FITC/PI staining based flow cytometric analysis (reference value: 1.56 %); assay type: functional
HT-29 [12] = experiment: Induction of apoptosis in human HT-29 cells assessed as necrotic cells at 10 uM incubated for 24 hrs by Annexin V-FITC/PI staining based flow cytometric analysis (reference value: 0.14 %); assay type: functional
HT-29 [13] = experiment: Induction of apoptosis in human HT-29 cells assessed as inhibition of caspase 9 protein expression measured for 24 hrs by Western blot analysis; assay type: functional, cell-based; details: dose 0-10 µM
HT-29 [14] = experiment: Induction of apoptosis in human HT-29 cells assessed as viable cells at 5 uM preincubated with Z-VAD-FMK for 1 hr followed by compound addition and measured after 24 hrs by Annexin V-FITC/PI staining based flow cytometric analysis (reference value: 88.5 %); assay type: functional; details: read-out: Activity
HT-29 [15] = experiment: Induction of autophagy in human HT-29 cells assessed as increase in LC3 protein expression at 1 to 10 uM incubated for 24 hrs by Western blot analysis; assay type: functional, cell-based; details: dose 1-10 µM
HCT-116 [16] = experiment: Induction of autophagy in human HCT-116 cells transfected with GFP-LC3 assessed as increase in LC3 dot puncta at 1 to 10 uM incubated for 24 hrs by fluorescence microscopy; assay type: functional, cell-based; details: dose 1-10 µM
HCT-116 [17] = experiment: Induction of autophagic flux in human HCT-116 cells assessed as increase in LC3I to LC3II conversion preincubated with chloroquine for 1 hr followed by compound addition and measured after 24 hrs by Western blot analysis; assay type: functional, cell-based
[18] = target: T1, Nuclear factor NF-kappa-B complex (Homo sapiens) (UniProt Q00653+P19838+Q04206); experiment: Inhibition of TNF-alpha induced NFkappaB activation in human HCT-116 cells assessed as downregulation of MCP-1 gene expression pretreated for 24 hrs followed by TNFalpha stimulation and measured after 2 hrs by quantitative RT-PCR analysis; assay type: cell-based; details: dose 1-10 µM, time 26.0 hrs
T1 sequence (P19838 whole entry, looked up): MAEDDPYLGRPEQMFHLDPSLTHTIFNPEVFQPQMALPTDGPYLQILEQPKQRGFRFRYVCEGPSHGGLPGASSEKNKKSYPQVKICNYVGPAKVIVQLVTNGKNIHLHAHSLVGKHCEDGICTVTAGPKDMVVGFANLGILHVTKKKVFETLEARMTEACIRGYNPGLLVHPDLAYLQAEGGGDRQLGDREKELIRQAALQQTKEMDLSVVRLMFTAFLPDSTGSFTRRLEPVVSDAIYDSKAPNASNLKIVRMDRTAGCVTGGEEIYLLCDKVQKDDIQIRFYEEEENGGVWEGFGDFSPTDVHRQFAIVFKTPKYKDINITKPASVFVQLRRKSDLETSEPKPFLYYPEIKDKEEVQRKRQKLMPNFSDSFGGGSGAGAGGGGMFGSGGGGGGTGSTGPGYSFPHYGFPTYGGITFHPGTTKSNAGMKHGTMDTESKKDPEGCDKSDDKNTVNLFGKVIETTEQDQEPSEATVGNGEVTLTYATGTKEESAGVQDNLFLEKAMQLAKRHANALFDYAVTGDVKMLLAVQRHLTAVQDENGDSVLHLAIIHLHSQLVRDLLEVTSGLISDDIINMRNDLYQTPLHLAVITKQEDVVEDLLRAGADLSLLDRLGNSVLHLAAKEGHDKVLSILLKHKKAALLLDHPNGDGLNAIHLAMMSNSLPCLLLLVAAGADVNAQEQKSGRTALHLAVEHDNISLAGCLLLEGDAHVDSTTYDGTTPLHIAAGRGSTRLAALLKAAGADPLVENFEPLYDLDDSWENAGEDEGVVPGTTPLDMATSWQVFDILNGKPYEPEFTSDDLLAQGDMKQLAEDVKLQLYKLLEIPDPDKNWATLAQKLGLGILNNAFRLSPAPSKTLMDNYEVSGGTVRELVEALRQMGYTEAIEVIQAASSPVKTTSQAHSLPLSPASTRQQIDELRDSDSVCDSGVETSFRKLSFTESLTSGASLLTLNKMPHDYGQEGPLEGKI
T1 sequence (Q00653 whole entry, looked up): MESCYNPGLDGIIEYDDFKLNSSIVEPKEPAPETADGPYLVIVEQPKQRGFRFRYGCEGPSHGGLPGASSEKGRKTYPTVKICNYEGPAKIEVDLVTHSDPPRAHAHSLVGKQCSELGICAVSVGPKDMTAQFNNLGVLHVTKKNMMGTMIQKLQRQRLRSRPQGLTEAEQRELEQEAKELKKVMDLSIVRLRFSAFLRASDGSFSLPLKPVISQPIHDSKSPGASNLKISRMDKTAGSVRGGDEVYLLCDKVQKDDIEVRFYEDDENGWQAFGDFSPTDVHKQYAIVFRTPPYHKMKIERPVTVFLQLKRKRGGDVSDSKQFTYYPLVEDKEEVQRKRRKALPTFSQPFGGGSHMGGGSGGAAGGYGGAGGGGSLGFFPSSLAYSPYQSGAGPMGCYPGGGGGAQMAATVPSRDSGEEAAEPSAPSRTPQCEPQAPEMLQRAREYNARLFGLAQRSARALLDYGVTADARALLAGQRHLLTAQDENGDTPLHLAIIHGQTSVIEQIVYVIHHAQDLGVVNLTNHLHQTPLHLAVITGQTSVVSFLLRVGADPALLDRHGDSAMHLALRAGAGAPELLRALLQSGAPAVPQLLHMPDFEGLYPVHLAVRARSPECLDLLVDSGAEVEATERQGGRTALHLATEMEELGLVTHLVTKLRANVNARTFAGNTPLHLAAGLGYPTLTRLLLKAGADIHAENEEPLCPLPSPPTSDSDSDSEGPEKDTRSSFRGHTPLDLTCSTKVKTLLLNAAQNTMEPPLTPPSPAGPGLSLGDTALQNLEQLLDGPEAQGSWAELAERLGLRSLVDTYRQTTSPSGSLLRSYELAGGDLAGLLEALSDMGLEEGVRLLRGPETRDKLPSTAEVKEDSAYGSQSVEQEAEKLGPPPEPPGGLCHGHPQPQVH
T1 sequence (Q04206 whole entry, looked up): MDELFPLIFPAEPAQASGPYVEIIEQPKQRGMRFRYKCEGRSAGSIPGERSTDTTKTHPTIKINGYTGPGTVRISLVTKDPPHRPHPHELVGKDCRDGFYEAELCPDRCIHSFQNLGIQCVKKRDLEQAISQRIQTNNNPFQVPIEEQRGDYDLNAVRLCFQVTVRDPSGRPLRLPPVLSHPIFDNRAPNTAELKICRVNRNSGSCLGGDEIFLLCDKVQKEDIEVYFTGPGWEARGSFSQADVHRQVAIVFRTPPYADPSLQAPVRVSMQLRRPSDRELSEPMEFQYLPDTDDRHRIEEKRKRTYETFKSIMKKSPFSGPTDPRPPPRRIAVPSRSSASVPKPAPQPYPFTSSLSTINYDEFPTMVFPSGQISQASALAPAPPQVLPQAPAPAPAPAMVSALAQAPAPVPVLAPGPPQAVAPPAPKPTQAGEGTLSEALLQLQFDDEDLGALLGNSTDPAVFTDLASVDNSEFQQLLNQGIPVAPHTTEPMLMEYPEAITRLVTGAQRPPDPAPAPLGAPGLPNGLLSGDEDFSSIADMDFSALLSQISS

[19] = target: T1, Nuclear factor NF-kappa-B complex (Homo sapiens); experiment: Inhibition of TNF-alpha induced NFkappaB activation in human HCT-116 cells assessed as inhibition of IkappaBalpha phosphorylation at 1 to 10 uM pretreated for 24 hrs followed by TNFalpha stimulation for 10 mins by Western blot analysis; assay type: cell-based; details: dose 1-10 µM, time 1450.0 min
[20] = target: T1, Nuclear factor NF-kappa-B complex (Homo sapiens); experiment: Inhibition of TNF-alpha induced NFkappaB activation in human HCT-116 cells assessed as inhibition of p65 phosphorylation at 1 to 10 uM pretreated for 24 hrs followed by TNFalpha stimulation for 10 mins by Western blot analysis; assay type: cell-based; details: dose 1-10 µM, time 1450.0 min
[21] = target: T1, Nuclear factor NF-kappa-B complex (Homo sapiens); experiment: Inhibition of TNF-alpha induced NFkappaB activation in human HT-29 cells assessed as inhibition of p65 nuclear translocation at 10 uM pretreated for 6 hrs followed by TNFalpha stimulation for 15 mins by immunohistochemical analysis; assay type: cell-based; details: time 6.25 hrs
HEK-293T = experiment: Inhibition of Flag-tagged TAK1/HA-tagged TRAF6 (unknown origin) protein-protein interaction transfected in HEK293T cells at 2 uM incubated for 6 hrs by co-immunoprecipitation method; assay type: cell-based; details: Homo sapiens
HCT-116 [22] = experiment: Antitumor activity against human HCT-116 cells xenografted in athymic nude BALB/c mouse assessed as reduction in tumor volume at 5 to 15 mg/kg, ip administered every other day and measured every other day for 16 days; assay type: functional, organism-based; details: dose 5-15 mg/kg, time 16.0 day
HCT-116 [23] = experiment: Antitumor activity against human HCT-116 cells xenografted in athymic nude BALB/c mouse assessed as reduction in tumor weight at 5 to 15 mg/kg, ip administered every other day and measured every other day for 16 days; assay type: functional, organism-based; details: dose 5-15 mg/kg, time 16.0 day
[24] = Toxicity in athymic nude BALB/c mouse xenografted with human HT-29 cells assessed as pathological changes in heart at 5 to 15 mg/kg, ip administered every other day and measured after 14 days by hematoxylin and eosin staining-based microscopic analysis; assay type: organism-based; details: in vivo, 336 h, dose 5-15 mg/kg, time 14 day
[25] = Toxicity in athymic nude BALB/c mouse xenografted with human HCT-116 cells assessed as pathological changes in kidney at 5 to 15 mg/kg, ip administered every other day and measured after 14 days by hematoxylin and eosin staining-based microscopic analysis; assay type: organism-based; details: in vivo, 336 h, dose 5-15 mg/kg, time 14 day
Mus musculus [26] = experiment: Anti-inflammatory activity in AOM/DSS-induced BALB/c mouse model inflammatory bowel disease assessed as reduction in distortion of glands at 10 mg/kg, ip pretreated with AOM for 7 days further replaced with DSS for 7 days and repeated for 2 times followed by every 2 days compound treatment for […] starting from day 50 by H and E staining based analysis; assay type: functional, organism-based; details: time 21.0 day
HT-29 [27] = experiment: Induction of autophagic flux in human HT-29 cells assessed as increase in LC3 protein expression preincubated with 3-methyladenine for 1 hr followed by compound addition and measured after 24 hrs by Western blot analysis; assay type: functional, cell-based
Mus musculus [28] = experiment: Protection against LPS-induced endotoxic shock in BALB/c mouse model assessed as survival rate at 5 mg/kg, ip pretreated for 4 hrs followed by LPS administration at 20 mg/kg and measured every 2 to 4 hrs for 44 hrs relative to control; assay type: functional; details: time 48 hrs

**Q.** For `C[C@@H]1CC[C@H]2[C@H](C(=O)c3c(O)c([C@@]4(O)CC[C@@H](O)[C@H]5O[C@H]54)cn(O)c3=O)[C@H](C)C=C[C@@H]2C1`, which inhibition (Mus musculus [1]) is on record?
**A.** Active

**Q.** And the Activity (HCT-116 [2])?
**A.** Active

**Q.** And the Activity (HT-29 [3])?
**A.** 0.17%

**Q.** And the viability at 0.25 µM (HCT-116 [4])?
**A.** 59.9%

**Q.** What about the Activity (HT-29 [5]) of the same compound?
**A.** Active

**Q.** What about the viability at 0.5 µM (HCT-116 [6]) of the same compound?
**A.** 51.7%

**Q.** What about the Activity (HCT-116 [7]) of the same compound?
**A.** 16.2%

**Q.** And the viability at 1 µM (HT-29 [8])?
**A.** 44.8%

**Q.** And the Activity (HT-29 [9])?
**A.** 46.2%

**Q.** What about the Activity (HT-29 [10]) of the same compound?
**A.** 56.4%

**Q.** What about the Activity (HT-29 [11]) of the same compound?
**A.** 4.04%

**Q.** And the Activity (HT-29 [12])?
**A.** 0.16%

**Q.** And the Activity (HT-29 [13])?
**A.** Dose-Dependent Effect

**Q.** What about the viability at 5 µM (HT-29 [14]) of the same compound?
**A.** 65.5%

**Q.** What about the Activity (HT-29 [15]) of the same compound?
**A.** Active

**Q.** What about the Activity (HCT-116 [16]) of the same compound?
**A.** Active

**Q.** And the Activity (HCT-116 [17])?
**A.** Active

**Q.** And the inhibition [18]?
**A.** Dose-Dependent Effect

**Q.** And the inhibition [19]?
**A.** Active

**Q.** And the inhibition [20]?
**A.** Active

**Q.** And the inhibition [21]?
**A.** Active

**Q.** What about the inhibition (HEK-293T) of the same compound?
**A.** Active

**Q.** What about the Activity (HCT-116 [22]) of the same compound?
**A.** Active

**Q.** What about the Activity (HCT-116 [23]) of the same compound?
**A.** Active

**Q.** What about the Activity [24] of the same compound?
**A.** Non-Toxic

**Q.** And the Activity [25]?
**A.** Non-Toxic

**Q.** What about the Activity (Mus musculus [26]) of the same compound?
**A.** Active

**Q.** What about the Activity (HT-29 [27]) of the same compound?
**A.** Active

**Q.** And the survival at 5 mg/kg (Mus musculus [28])?
**A.** > 40%
